Source: US4981872A, “Prostaglandin derivatives, their preparation and their therapeutic use” (Sankyo Company Limited, priority 1987, dated 1991)
In brackets after ≈: the same amount, converted by molar mass.

How the values were obtained:
[1] = system: ethanol-induced gastric ulcers; assay: Effects on ethanol-induced gastric ulcers (inhibition of gastric mucosal lesions, oral); format: in vivo, male rats of the Sprague-Dawley strain; details: p.o., 1 hour before 1 ml absolute ethanol, rat, ID50 of gastric mucosal lesions, read-out: Anti-ulcer activity (ID50, p.o.)
Procedure: Effects on ethanol-induced qastric ulcers
The test animals used were male rats of the Sprague-Dawley strain each having a body weiqht of about 180-200 g, prior to use in this experiment they were starved for about 42 hours. At the end of this time, each animal was orally administered one of the test compounds shown in the following Table 3. in which the compounds are identified by the number of the foregoing Example in which they were prepared. One hour after administration, gastric mucosal lesions were induced by the oral administration of 1 ml of absolute ethanol. One hour after this administration, the animals were sacrificed with dry ice, and their stomachs were removed and fixed with formalin. The area (mm^2) of the mucosal lesions induced on the gastric mucosa by the ethanol was measured by a video image processor and the inhibition of gastric mucosal lesions by each test compound was calculated in terms of the ID50, by comparison with the results achieved from control animals which had been treated as described above, except that no anti ulcer compound was administered and from the results achieved from the test compounds at various levels of administration.
As a control, there was used the following prior art 6-oxo compound (ORNOPROSTIL): [drawing 12]

[2] = system: blood platelet aggregation; assay: Inhibition of blood platelet aggregation in vitro (adenosine diphosphate-induced, Born's method); format: cell-based, Japanese white rabbit; details: Oryctolagus cuniculus, rabbit PRP/PPP mixture, ADP 5μM
Procedure: Inhibition of blood platelet aggregation in vitro
One part by volume of blood from a Japanese white rabbit was mixed immediately after removal with one tenth of its volume of a 3.8% w/v aqueous solution of sodium citrate. The mixture was then centrifuged at 95×G for 15 minutes at room temperature to obtain a platelet-rich plasma (PRP) as the upper layer. The remaining blood sample was then centrifuged for a further 15 minutes at 1000×G to obtain a platelet poor plasma (PPP). By mixing appropriate amounts of the PRP and the PPP, the final platelet count of the mixture was adjusted to 6×105 per μ, platelet aggregation was determined by Born's method [G. V. R. Born: J. Physiol. 62, 67-68 (1962)] by increases in transparency of the test liquid using a platelet aggregometer 25 μl of a solution of the test compound were added to 250 μof the mixture of PRP and PPP and then two minutes after mixing the solutions 25 μl of a liquid containing adenosine diphosphate at a concentration of 5μM were added.
The inhibition of platelet aggregation was assessed by comparing the increase in the amount of light transmitted through the test sample treated platelet-rich plasma with a control platelet-rich plasma which had been treated in the same way, except that the test compound was replaced by physiological saline.

Structure (SMILES)	ED50 [1]	IC50 [2]
CCCCC(C)(C)[C@H](O)/C=C/[C@H]1[C@H](O)CC(=O)[C@@H]1CCCC(=O)CCC(=O)OC [Ex. 31, Methyl 4,9-dioxo-11α,15α-dihydroxy-16,16-dimethylprost 13(E) enoate]	4.91 µg/kg	> 10 µg/mL
COC(=O)CCCC(=O)CC[C@H]1C(=O)C[C@@H](O)[C@@H]1/C=C/[C@@H](O)COc1ccc(Cl)cc1 [Ex. 11, 5-Oxo-16-p-chlorophenoxy-17,18,19,20-tetranorprostaglandin E1 methyl ester]	0.49 µg/kg	> 10 µg/mL
CCCC[C@H](C)C[C@H](O)/C=C/[C@H]1[C@H](O)CC(=O)[C@@H]1CC(=O)CCCCC(=O)OC [Control, reference compound]	0.2 µg/kg	0.0019 µg/mL (≈ 0.00463 µM)
COC(=O)CCCC(=O)CC[C@H]1C(=O)C[C@@H](O)[C@@H]1/C=C/[C@@H](O)COc1ccccc1 [Ex. 1, 5-Oxo-16-phenoxy-17,18,19,20-tetranorprostaglandin E1 methyl ester]	2.94 µg/kg	> 10 µg/mL
COC(=O)CCC(=O)CCC[C@H]1C(=O)C[C@@H](O)[C@@H]1/C=C/[C@@H](O)COc1ccccc1 [Ex. 30, Methyl 4,9-dioxo-11α,15α-dihydroxy-16-phenoxy17,18,19,20-tetranprprost 13(E)-enoate]	3.7 µg/kg	> 10 µg/mL
